According to patent US20230017045A1, “PYRIDINE AND PYRIMIDINE CARBOXYLATE HERBICIDES AND METHODS OF USE THEREOF” (Dow AgroSciences LLC, priority 2017, published 2023):

Tested on: test plant species
Experiment: Post-emergent herbicidal activity test (greenhouse, foliar spray, visual growth reduction)
Format: in vivo
Settings: post-emergence, 336 h, ECHCG: barnyardgrass (Echinochloa crus-galli), 140 g ai/ha, 14 days after application, read-out: Visual Growth Reduction (%) 14 Days After Application, ECHCG
Summary of the method: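 Visual scoring 14 d after treatment (0 = no injury, 100 = complete control) against nontreated and solvent-blank plants gave percent growth reduction. Foliar application used a track sprayer delivering 187 L/ha to seedlings at first or second true leaf stage, grown at 23–29 °C day, ~15 h photoperiod.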

SMILES	pest or weed control at 140 g/ha
COC(=O)c1nc(-c2ccc(Cl)cc2F)ccc1Cl [F270, Methyl 3-chloro-6-(4-chloro-2-fluorophenyl) picolinate]	0 to 29%
COC(=O)c1nc(-c2ccc([S+](C)[O-])cc2)c(F)cc1Cl (stereo not drawn) [F263, Methyl 3-chloro-5-fluoro-6-(4-(methylsulfinyl)phenyl)picolinate]	0 to 29%

Same assay, conditions: post-emergence, 336 h, IPOHE: ivy-leaf morning glory (Ipomoea hederacea), 140 g ai/ha, 14 days after application, read-out: Visual Growth Reduction (%) 14 Days After Application, IPOHE

SMILES	pest or weed control at 140 g/ha
COC(=O)c1nc(-c2ccc(Cl)cc2F)ccc1Cl [F270, Methyl 3-chloro-6-(4-chloro-2-fluorophenyl) picolinate]	95 to 100%
COC(=O)c1nc(-c2ccc([S+](C)[O-])cc2)c(F)cc1Cl (stereo not drawn) [F263, Methyl 3-chloro-5-fluoro-6-(4-(methylsulfinyl)phenyl)picolinate]	0 to 29%

Same assay, conditions: post-emergence, 336 h, KCHSC: kochia (Bassia scoparia), 140 g ai/ha, 14 days after application, read-out: Visual Growth Reduction (%) 14 Days After Application, KCHSC

SMILES	pest or weed control at 140 g/ha
COC(=O)c1nc(-c2ccc(Cl)cc2F)ccc1Cl [F270, Methyl 3-chloro-6-(4-chloro-2-fluorophenyl) picolinate]	75 to 84%
COC(=O)c1nc(-c2ccc([S+](C)[O-])cc2)c(F)cc1Cl (stereo not drawn) [F263, Methyl 3-chloro-5-fluoro-6-(4-(methylsulfinyl)phenyl)picolinate]	0 to 29%

Same assay, conditions: post-emergence, 336 h, ORYSA: rice (Oryza sativa), 140 g ai/ha, 14 days after application, read-out: Visual Growth Reduction (%) 14 Days After Application, ORYSA

SMILES	pest or weed control at 140 g/ha
COC(=O)c1nc(-c2ccc(Cl)cc2F)ccc1Cl [F270, Methyl 3-chloro-6-(4-chloro-2-fluorophenyl) picolinate]	0 to 29%
COC(=O)c1nc(-c2ccc([S+](C)[O-])cc2)c(F)cc1Cl (stereo not drawn) [F263, Methyl 3-chloro-5-fluoro-6-(4-(methylsulfinyl)phenyl)picolinate]	0 to 29%

Same assay, conditions: post-emergence, 336 h, SETFA: giant foxtail (Setaria faberi), 140 g ai/ha, 14 days after application, read-out: Visual Growth Reduction (%) 14 Days After Application, SETFA

SMILES	pest or weed control at 140 g/ha
COC(=O)c1nc(-c2ccc(Cl)cc2F)ccc1Cl [F270, Methyl 3-chloro-6-(4-chloro-2-fluorophenyl) picolinate]	0 to 29%
COC(=O)c1nc(-c2ccc([S+](C)[O-])cc2)c(F)cc1Cl (stereo not drawn) [F263, Methyl 3-chloro-5-fluoro-6-(4-(methylsulfinyl)phenyl)picolinate]	0 to 29%

Same assay, conditions: post-emergence, 336 h, SORVU: grain sorghum (Sorghum vulgare), 140 g ai/ha, 14 days after application, read-out: Visual Growth Reduction (%) 14 Days After Application, SORVU

SMILES	pest or weed control at 140 g/ha
COC(=O)c1nc(-c2ccc(Cl)cc2F)ccc1Cl [F270, Methyl 3-chloro-6-(4-chloro-2-fluorophenyl) picolinate]	85 to 94%
COC(=O)c1nc(-c2ccc([S+](C)[O-])cc2)c(F)cc1Cl (stereo not drawn) [F263, Methyl 3-chloro-5-fluoro-6-(4-(methylsulfinyl)phenyl)picolinate]	0 to 29%

Same assay, conditions: post-emergence, 336 h, STEME: common chickweed (Stellaria media), 140 g ai/ha, 14 days after application, read-out: Visual Growth Reduction (%) 14 Days After Application, STEME

SMILES	pest or weed control at 140 g/ha
COC(=O)c1nc(-c2ccc(Cl)cc2F)ccc1Cl [F270, Methyl 3-chloro-6-(4-chloro-2-fluorophenyl) picolinate]	30 to 44%
COC(=O)c1nc(-c2ccc([S+](C)[O-])cc2)c(F)cc1Cl (stereo not drawn) [F263, Methyl 3-chloro-5-fluoro-6-(4-(methylsulfinyl)phenyl)picolinate]	0 to 29%

Same assay, conditions: post-emergence, 336 h, TRZAS: wheat, spring (Triticum aestivum), 140 g ai/ha, 14 days after application, read-out: Visual Growth Reduction (%) 14 Days After Application, TRZAS

SMILES	pest or weed control at 140 g/ha
COC(=O)c1nc(-c2ccc(Cl)cc2F)ccc1Cl [F270, Methyl 3-chloro-6-(4-chloro-2-fluorophenyl) picolinate]	45 to 59%
COC(=O)c1nc(-c2ccc([S+](C)[O-])cc2)c(F)cc1Cl (stereo not drawn) [F263, Methyl 3-chloro-5-fluoro-6-(4-(methylsulfinyl)phenyl)picolinate]	0 to 29%

Same assay, conditions: post-emergence, 336 h, blackgrass (Alopecurus myosuroides), 14 Days After Application, 140 g ai/ha, read-out: Visual Growth Reduction (%) ALOMY

SMILES	pest or weed control at 140 g/ha
COC(=O)c1nc(-c2ccc(Cl)cc2F)ccc1Cl [F270, Methyl 3-chloro-6-(4-chloro-2-fluorophenyl) picolinate]	0 to 29%
COC(=O)c1nc(-c2ccc([S+](C)[O-])cc2)c(F)cc1Cl (stereo not drawn) [F263, Methyl 3-chloro-5-fluoro-6-(4-(methylsulfinyl)phenyl)picolinate]	0 to 29%

Same assay, conditions: post-emergence, 336 h, canada thistle (Cirsium arvense), 14 Days After Application, 140 g ai/ha, read-out: Visual Growth Reduction (%) CIRAR

SMILES	pest or weed control at 140 g/ha
COC(=O)c1nc(-c2ccc(Cl)cc2F)ccc1Cl [F270, Methyl 3-chloro-6-(4-chloro-2-fluorophenyl) picolinate]	75 to 84%
COC(=O)c1nc(-c2ccc([S+](C)[O-])cc2)c(F)cc1Cl (stereo not drawn) [F263, Methyl 3-chloro-5-fluoro-6-(4-(methylsulfinyl)phenyl)picolinate]	0 to 29%

Same assay, conditions: post-emergence, 336 h, crabgrass (Digitaria sanguinalis), 14 Days After Application, 140 g ai/ha, read-out: Visual Growth Reduction (%) DIGSA

SMILES	pest or weed control at 140 g/ha
COC(=O)c1nc(-c2ccc(Cl)cc2F)ccc1Cl [F270, Methyl 3-chloro-6-(4-chloro-2-fluorophenyl) picolinate]	85 to 94%
COC(=O)c1nc(-c2ccc([S+](C)[O-])cc2)c(F)cc1Cl (stereo not drawn) [F263, Methyl 3-chloro-5-fluoro-6-(4-(methylsulfinyl)phenyl)picolinate]	0 to 29%

Same assay, conditions: post-emergence, 336 h, lambsquarters (Chenopodium album), 14 Days After Application, 140 g ai/ha, read-out: Visual Growth Reduction (%) CHEAL

SMILES	pest or weed control at 140 g/ha
COC(=O)c1nc(-c2ccc(Cl)cc2F)ccc1Cl [F270, Methyl 3-chloro-6-(4-chloro-2-fluorophenyl) picolinate]	85 to 94%
COC(=O)c1nc(-c2ccc([S+](C)[O-])cc2)c(F)cc1Cl (stereo not drawn) [F263, Methyl 3-chloro-5-fluoro-6-(4-(methylsulfinyl)phenyl)picolinate]	0 to 29%

Same assay, conditions: post-emergence, 336 h, redroot pigweed (Amaranthus retroflexus), 14 Days After Application, 140 g ai/ha, read-out: Visual Growth Reduction (%) AMARE

SMILES	pest or weed control at 140 g/ha
COC(=O)c1nc(-c2ccc(Cl)cc2F)ccc1Cl [F270, Methyl 3-chloro-6-(4-chloro-2-fluorophenyl) picolinate]	45 to 59%
COC(=O)c1nc(-c2ccc([S+](C)[O-])cc2)c(F)cc1Cl (stereo not drawn) [F263, Methyl 3-chloro-5-fluoro-6-(4-(methylsulfinyl)phenyl)picolinate]	0 to 29%

Same assay, conditions: post-emergence, 336 h, wild oat (Avena fatua), 14 Days After Application, 140 g ai/ha, read-out: Visual Growth Reduction (%) AVEFA

SMILES	pest or weed control at 140 g/ha
COC(=O)c1nc(-c2ccc(Cl)cc2F)ccc1Cl [F270, Methyl 3-chloro-6-(4-chloro-2-fluorophenyl) picolinate]	0 to 29%
COC(=O)c1nc(-c2ccc([S+](C)[O-])cc2)c(F)cc1Cl (stereo not drawn) [F263, Methyl 3-chloro-5-fluoro-6-(4-(methylsulfinyl)phenyl)picolinate]	0 to 29%

Same assay, conditions: post-emergence, 336 h, yellow nutsedge (Cyperus esculentus), 14 Days After Application, 140 g ai/ha, read-out: Visual Growth Reduction (%) CYPES

SMILES	pest or weed control at 140 g/ha
COC(=O)c1nc(-c2ccc(Cl)cc2F)ccc1Cl [F270, Methyl 3-chloro-6-(4-chloro-2-fluorophenyl) picolinate]	45 to 59%
COC(=O)c1nc(-c2ccc([S+](C)[O-])cc2)c(F)cc1Cl (stereo not drawn) [F263, Methyl 3-chloro-5-fluoro-6-(4-(methylsulfinyl)phenyl)picolinate]	0 to 29%
